According to ChEMBL document CHEMBL1201862, “PubChem BioAssay data set” (2004):
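Growth conditions: 96-well plates. Treatment: test compound, 48 hours, 5 concentrations. Analysis: linear interpolation between bracketing concentrations; unreached endpoints set to highest concentration. GI50 marks 50% less growth.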 Activity calls are given as the source filed them. Rule as the data show it: active = GI50 up to about 1.1 µM and inactive = higher.

Key:
Assay in all cases: inhibition of tumour cell growth, NCI panel, 48 h
UACC-62 = test system: UACC-62
OVCAR-8 = test system: OVCAR-8
SF-268 = test system: SF-268
EKVX = test system: EKVX
SK-OV-3 = test system: SK-OV-3
KM12 = test system: KM12
MCF7 = test system: MCF7
Malme-3M = test system: Malme-3M
M14 = test system: M14
OVCAR-5 = test system: OVCAR-5
SN12C = test system: SN12C
NCI-H226 = test system: NCI-H226
SK-MEL-5 = test system: SK-MEL-5
MDA-N = test system: MDA-N
OVCAR-3 = test system: OVCAR-3
SK-MEL-28 = test system: SK-MEL-28
LOX IMVI = test system: LOX IMVI
A549 = test system: A549
HCT-116 = test system: HCT-116
786-0 = test system: 786-0

SMILES	GI50 (UACC-62)	GI50 (OVCAR-8)	GI50 (SF-268)	GI50 (EKVX)	GI50 (SK-OV-3)	GI50 (KM12)	GI50 (MCF7)	GI50 (Malme-3M)	GI50 (M14)	GI50 (OVCAR-5)	GI50 (SN12C)	GI50 (NCI-H226)	GI50 (SK-MEL-5)	GI50 (MDA-N)	GI50 (OVCAR-3)	GI50 (SK-MEL-28)	GI50 (LOX IMVI)	GI50 (A549)	GI50 (HCT-116)	GI50 (786-0)
Cc1nc(-c2ccccc2)c(-c2ccccc2)s1	18 µM (inactive)	27.1 µM (inactive)	25.6 µM (inactive)	22.6 µM (inactive)	22.9 µM (inactive)	20.4 µM (inactive)	25.3 µM (inactive)	21.4 µM (inactive)	19.9 µM (inactive)	27.6 µM (inactive)	37.9 µM (inactive)	17.9 µM (inactive)	14.4 µM (inactive)	11.4 µM (inactive)	23.5 µM (inactive)	45 µM (inactive)	16.4 µM (inactive)	25.8 µM (inactive)	25.6 µM (inactive)	21.4 µM (inactive)
CN(C)CCNc1nc2c(no[n+]2[O-])c2ccccc12.[O-][Cl+3]([O-])([O-])O	21 µM (inactive)	14.6 µM (inactive)	4.42 µM (inactive)	26.1 µM (inactive)	32.1 µM (inactive)	21.1 µM (inactive)	19.7 µM (inactive)	22.5 µM (inactive)	15.7 µM (inactive)	38 µM (inactive)	25.6 µM (inactive)	16.1 µM (inactive)	15.2 µM (inactive)	28.9 µM (inactive)	30.8 µM (inactive)	18.5 µM (inactive)	16.8 µM (inactive)	16.7 µM (inactive)	12.4 µM (inactive)	18.7 µM (inactive)
O=C1OC(c2ccccc2)=N/C1=C\c1ccc(N(CCCl)CCCl)cc1	> 100 µM (inactive)	> 100 µM (inactive)	> 88.7 µM (inactive)	> 100 µM (inactive)	> 100 µM (inactive)	> 92.3 µM (inactive)	39.9 µM (inactive)	> 100 µM (inactive)	> 100 µM (inactive)	> 100 µM (inactive)	> 92 µM (inactive)	> 100 µM (inactive)	> 100 µM (inactive)	> 100 µM (inactive)	> 76.2 µM (inactive)	> 100 µM (inactive)	> 91.4 µM (inactive)	> 100 µM (inactive)	> 100 µM (inactive)	> 94 µM (inactive)
O=[N+]([O-])c1cc(F)ccc1Sc1ccccc1	> 10 µM (inactive)	> 10 µM (inactive)	> 10 µM (inactive)	> 10 µM (inactive)	> 10 µM (inactive)	> 10 µM (inactive)	> 10 µM (inactive)	> 10 µM (inactive)	> 10 µM (inactive)	> 10 µM (inactive)	> 10 µM (inactive)	> 10 µM (inactive)	> 10 µM (inactive)	> 10 µM (inactive)	> 10 µM (inactive)	> 10 µM (inactive)	> 10 µM (inactive)	> 10 µM (inactive)	> 10 µM (inactive)	> 10 µM (inactive)
CCN(CC)CCSc1c(C(C)=O)c(=O)n(-c2ccccc2)c(=S)n1-c1ccccc1	14.4 µM (inactive)	3.46 µM (inactive)	15.8 µM (inactive)	15.1 µM (inactive)	34 µM (inactive)	17.2 µM (inactive)	3.18 µM (inactive)	6.1 µM (inactive)	2.05 µM (inactive)	21 µM (inactive)	14.4 µM (inactive)	> 40.3 µM (inactive)	13.8 µM (inactive)	6.68 µM (inactive)	2.81 µM (inactive)	10.5 µM (inactive)	3.32 µM (inactive)	13.8 µM (inactive)	2.28 µM (inactive)	1.8 µM (inactive)
CCOC(=O)C1OC(C2(C)OC3(OC4(C=CC3O)OC(C(C)C(=O)C(C)C(O)C(C)CC(C)c3c(Cl)cc(C)c(O)c3C(=O)O)C(C)CC4C)C(C)C2OC)CC1O (stereo not given)	0.27 µM (active)	0.771 µM (active)	0.155 µM (active)	1.09 µM (active)	0.177 µM (active)	1.28 µM (inactive)	0.181 µM (active)	0.294 µM (active)	0.48 µM (active)	2.69 µM (inactive)	0.207 µM (active)	0.24 µM (active)	0.257 µM (active)	0.55 µM (active)	0.45 µM (active)	0.418 µM (active)	0.413 µM (active)	0.406 µM (active)	0.693 µM (active)	0.454 µM (active)
N#CC1(C2SCC[S+]2[O-])C2=C(C(=O)c3ccccc3C2=O)N2CCCC21 (stereo not given)	2.85 µM (inactive)	2.18 µM (inactive)	3.01 µM (inactive)	4.8 µM (inactive)	15.3 µM (inactive)	3.02 µM (inactive)	1.63 µM (inactive)	0.381 µM (active)	1.17 µM (inactive)	3.78 µM (inactive)	2.38 µM (inactive)	3.66 µM (inactive)	0.364 µM (active)	0.605 µM (active)	0.583 µM (active)	2.85 µM (inactive)	0.986 µM (active)	2.1 µM (inactive)	2 µM (inactive)	4.21 µM (inactive)
